{
  "source": "patent US11389415B2",
  "about": "“Methods of regulating cannabinoid receptor activity-related disorders and diseases” (The United States of America as represented by the …, priority 2012, dated 2022)",
  "key": {"[1]": {"tested_on": "U87MG cells", "experiment": "[3H]-Thymidine incorporation in U87MG cells", "assay_type": "cell-based, human", "experimental": "(§1) Maintenance and Treatment of Cell Lines. Human HepG2 hepatocarcinoma cells and human U87MG glioma cells (ATCC, Manassas, Va.) were maintained in EMEM medium supplemented with 1% L-glutamine, 1% sodium pyruvate, 1% penicillin/streptomycin, and 10% FBS (Hyclone, Logan, Utah). The human 1321N1 astrocytoma cells (European Collection of Cell Cultures, Sigma-Aldrich) were cultured in Dulbecco's modified Eagle's medium supplemented with 10% FBS and penicillin/streptomycin. All cell lines were cultured at 37° C. in 5% CO2, and the medium was replaced every 2-3 days.\n(§2) Cells were seeded in 12-well plates at approximately 50,000 cells/well and incubated at 37° C. After 24 hours, the wells were rinsed with PBS and replaced with serum-free medium containing the appropriate concentration of the test compounds. After another 24-hour incubation at 37° C., 1 μCi of [^3H]-thymidine was added to each well and incubated at 37° C. for 16 hours. [^3H]-Thymidine incorporation into DNA was monitored after the cells were washed twice with PBS and then lysed in 600 μL of 0.1N NaOH for 30 minutes with shaking. The lysate was then mixed with 3 mL of liquid scintillation cocktail (Beckman Coulter, Inc., Brea, Calif.), and radioactivity was measured by liquid scintillation counting using Beckman Coulter LS6000IC Scintillation Counter. Data are shown as CPM incorporated compared to the control cells."}, "[2]": {"tested_on": "1321N1 cells", "experiment": "Mitogenesis / [3H]-thymidine incorporation in 1321N1 cells", "assay_type": "cell-based, human", "conditions": "for effect on proliferation / [3H]-thymidine incorporation: compound alone", "experimental": "as §1\nas §2, with “[^3H]-Thymidine Incorporation Assay. Cells” for “Cells”"}, "[3]": {"tested_on": "Akt and ERK1/2", "experiment": "phosphorylation of Akt and ERK1/2 in HepG2 cells (Western blot)", "assay_type": "cell-based, human", "conditions": "1 μM, 5, 10 and 30 minutes", "quoted_text": "Western Blotting. Cells were lysed with RIPA buffer containing EGTA and EDTA (Boston BioProducts, Ashland, Mass.). The lysis buffer was mixed with a protease inhibitor cocktail (Sigma-Aldrich). Protein concentrations were measured using the bicinchoninic acid reagent (Thermo-Pierce Biotechnology, Inc., Rockford, Ill.). […] Western blots were performed according to standard methods. The visualization of immunoreactive bands was performed using the ECL Plus Western Blotting Detection System (GE Healthcare, NJ) and their quantification was done by volume densitometry using Image J software and normalization to β-actin. […] The antibodies were used at a dilution recommended by the manufacturer."}, "[4]": {"tested_on": "HepG2 cells", "experiment": "cAMP accumulation in HepG2 cells", "assay_type": "cell-based, human", "conditions": "β-agonists at 10 μM", "experimental": "cAMP Accumulation. HepG2 cells were seeded in 96-well plates and grown to confluency. […] The levels of cAMP accumulated in cells were determined and normalized to the amount of protein per well."}, "[5]": {"tested_on": "rat C6 glioma cells", "experiment": "3H-Thymidine incorporation in rat C6 glioma cells", "assay_type": "cell-based", "conditions": "for effect of preincubation on antiproliferative effect of MNF: C6 cells, ICI-118,551 3 nM, AM251 0.5 and 1 μM, AM630 0.5 μM, 30 minutes, then 20 nM MNF", "experimental": "Cell culture. The rat-derived C6 glioma cell line was obtained from the American Type Culture Collection (Manassas, Va.). The cells were routinely maintained in DMEM supplemented with L-glutamine, 1% penicillin/streptomycin solution, and 10% FBS in a humidified CO2 incubator at 37° C.\n3H-Thymidine incorporation. C6 glioma cells were seeded in 12-well plates at ˜5×10^4 cells/well and incubated for 24 hours followed by a second 24-hour incubation with various concentrations of MNF. Radiolabeled thymidine (10 Ci/mmol; PerkinElmer Life and Analytical Sciences, Waltham, Mass.) was added at 1 μCi per well for 16 hours and its incorporation into DNA was then measured. Each treatment group was performed in triplicate and three independent studies were carried out."}, "[6]": {"tested_on": "HepG2 cells", "experiment": "[3H]-Thymidine incorporation assay in HepG2 cells", "assay_type": "cell-based, human", "conditions": "for % Change in HepG2 cells ([3H]-thymidine incorporation): 1 μM; for effect of pretreatment on (R,R′)-Fen-stimulated mitogenesis: 1 h pretreatment then (R,R′)-Fen 24 h; for effect of pretreatment on anti-proliferative effect of (R,R′)-MNF: 1 h pretreatment then (R,R′)-MNF 24 h; for effect on cell proliferation: compound alone", "experimental": "as §1, §2"}, "[7]": {"biological_target": "GPR55 (Homo sapiens, UniProt Q9Y2T6)", "sequence (Q9Y2T6 whole entry)": "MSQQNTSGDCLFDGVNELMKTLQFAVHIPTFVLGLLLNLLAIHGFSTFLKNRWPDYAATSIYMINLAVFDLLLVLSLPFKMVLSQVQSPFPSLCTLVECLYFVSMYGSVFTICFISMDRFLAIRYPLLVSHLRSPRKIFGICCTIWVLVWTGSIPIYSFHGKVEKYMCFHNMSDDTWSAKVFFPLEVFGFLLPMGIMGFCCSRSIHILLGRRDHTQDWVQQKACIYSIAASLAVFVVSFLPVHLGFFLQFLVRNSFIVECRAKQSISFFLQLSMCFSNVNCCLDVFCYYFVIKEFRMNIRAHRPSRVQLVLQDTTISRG", "experiment": "Cellular uptake of TocriFluor T1117 in HepG2 cells", "assay_type": "cell-based", "design": "host or cells: HepG2 hepatocarcinoma cells", "conditions": "for effect of pretreatment on T1117 incorporation: HepG2, AM630 1 μM, WIN 55,212-2 1 μM (1 hour), AM251 1 μM (30 minutes)"}},
  "data": [
    {"smiles": "CC(C)NC[C@H](O)c1ccc(O)c(O)c1", "note": "[(R)-isoproterenol, reference compound]", "values": [
      {"measurement": "effect on cellular proliferation", "setting": "[1]; compound alone", "result": "had no effect on U87MG cells"},
      {"measurement": "effect on proliferation / [3H]-thymidine incorporation", "setting": "[2]", "result": "reduced proliferation in 1321N1 cells"},
      {"measurement": "Akt and ERK activation", "setting": "[3]", "result": "induced a time-dependent increase in Akt and ERK activation"},
      {"measurement": "cAMP production", "setting": "[4]", "result": "Neither (R)-isoproterenol nor (R,R′)-Fen, at 10 μM, elicited an increase in cAMP production"},
      {"measurement": "inhibition at 0.02 µM", "setting": "[5]; Rattus norvegicus, 20 nM, 24 hours, read-out: inhibition of C6 cell growth / reduction in mitogenesis", "result": "10 to 15", "unit": "%"},
      {"measurement": "EC50", "setting": "[6]; Homo sapiens, HepG2 cells, serum-free medium, 24 h, read-out: IC50/EC50 (μM): EC50 (ED50) for increase in [3H]-thymidine incorporation", "result": "0.4 ± 0.08", "unit": "µM"}
    ]},
    {"smiles": "C[C@H](Cc1cccc2ccccc12)NC[C@H](O)c1cc(O)cc(O)c1", "note": "[(R,R′)-1-naphthylFen, (R,R′)-1-naphthylfenoterol]", "values": [
      {"measurement": "% Change in HepG2 cells ([3H]-thymidine incorporation)", "setting": "[6]; 24 h", "result": "(R,R): −67.52%"},
      {"measurement": "IC50", "setting": "[6]; Homo sapiens, HepG2, read-out: IC50/EC50 (μM): IC50 for inhibition of [3H]-thymidine incorporation", "result": "0.21 ± 0.07", "unit": "µM"}
    ]},
    {"smiles": "C[C@H](Cc1ccc(N)cc1)NC[C@H](O)c1cc(O)cc(O)c1", "note": "[(R,R′)-aminoFen, (R,R′)-4′-aminofenoterol]", "values": [
      {"measurement": "effect on proliferation / [3H]-thymidine incorporation", "setting": "[2]", "result": "markedly lower"},
      {"measurement": "% Change in HepG2 cells ([3H]-thymidine incorporation)", "setting": "[6]; 24 h", "result": "(R,R′): 54.37%"},
      {"measurement": "fold more active than (R,R′)-Fen", "setting": "[6]; [3H]-thymidine incorporation, HepG2", "result": 3, "unit": "fold"}
    ]},
    {"smiles": "C[C@@H](Cc1ccc(O)cc1)NC[C@H](O)c1cc(O)cc(O)c1", "note": "[(R,S′)-Fen, fenoterol]", "values": [
      {"measurement": "% Change in HepG2 cells ([3H]-thymidine incorporation)", "setting": "[6]; 24 h", "result": 19.1, "unit": "%"}
    ]},
    {"smiles": "COc1ccc(C[C@H](C)NC[C@H](O)c2cc(O)cc(O)c2)c2ccccc12", "note": "[(R,S′)-MNF, 4-methoxy-1-naphthylfenoterol]", "values": [
      {"measurement": "% Change in HepG2 cells ([3H]-thymidine incorporation)", "setting": "[6]; 24 h", "result": "−68.1", "unit": "%"}
    ]},
    {"smiles": "C[C@H](Cc1ccc(O)cc1)NC[C@@H](O)c1cc(O)cc(O)c1", "note": "[(S,R′)-Fen, fenoterol]", "values": [
      {"measurement": "% Change in HepG2 cells ([3H]-thymidine incorporation)", "setting": "[6]; 24 h", "result": 28.7, "unit": "%"}
    ]},
    {"smiles": "Cc1c(C(=O)NN2CCCCC2)nn(-c2ccc(Cl)cc2Cl)c1-c1ccc(I)cc1", "note": "[AM251, 1-(2,4-dichlorophenyl)-5-(4-iodophenyl)-4-methyl-N-(1-piperidyl)pyrazole-3-carboxamide, reference compound]", "values": [
      {"measurement": "effect of pretreatment on anti-proliferative action of (R,R′)-MNF", "setting": "[1]", "result": "partially blocked"},
      {"measurement": "effect of preincubation on antiproliferative effect of MNF", "setting": "[5]", "result": "rendered C6 cells refractory to the growth-inhibitory effect of MNF"},
      {"measurement": "effect of pretreatment on (R,R′)-Fen-stimulated mitogenesis", "setting": "[6]; HepG2 cells", "result": "had no impact on the mitogenic responses of (R,R′)-Fen"},
      {"measurement": "effect of pretreatment on anti-proliferative effect of (R,R′)-MNF", "setting": "[6]; HepG2 cells", "result": "completely inhibited the anti-proliferative effects of (R,R′)-MNF"}
    ]},
    {"smiles": "COc1ccc(C(=O)c2c(C)n(CCN3CCOCC3)c3cc(I)ccc23)cc1", "note": "[AM630, 1-[2-(morpholin-4-yl)ethyl]-2-methyl-3-(4-methoxybenzoyl)-6-iodoindole]", "values": [
      {"measurement": "effect of pretreatment on anti-proliferative action of (R,R′)-MNF", "setting": "[1]", "result": "partially blocked"},
      {"measurement": "effect of pretreatment on T1117 incorporation", "setting": "[7]", "result": "largely inactive"},
      {"measurement": "effect of preincubation on antiproliferative effect of MNF", "setting": "[5]", "result": "had minimal effect against MNF signaling"},
      {"measurement": "effect of pretreatment on (R,R′)-Fen-stimulated mitogenesis", "setting": "[6]; HepG2 cells", "result": "had no impact on the mitogenic responses of (R,R′)-Fen"},
      {"measurement": "effect of pretreatment on anti-proliferative effect of (R,R′)-MNF", "setting": "[6]; HepG2 cells", "result": "completely inhibited the anti-proliferative effects of (R,R′)-MNF"}
    ]},
    {"smiles": "CCCCCCC(C)(C)c1ccc([C@@H]2C[C@H](O)CC[C@H]2CCCO)c(O)c1", "note": "[CP 55,940]", "values": [
      {"measurement": "reduction of T1117 uptake", "setting": "[7]; HepG2, 0.25 μM, 30-minutes pretreatment", "result": 2.5, "unit": "fold"}
    ]},
    {"smiles": "Cc1ccc(OCC(O)C(C)NC(C)C)c2c1CCC2", "note": "(stereo not drawn) [ICI 118,551, 3-(isopropylamino)-1-[(7-methyl-4-indanyl)oxy]butan-2-ol, reference compound]", "values": [
      {"measurement": "effect of pretreatment on anti-proliferative action of (R,R′)-MNF", "setting": "[1]", "result": "inactive against the anti-proliferative action of (R,R′)-MNF in U87MG cells"},
      {"measurement": "effect of pretreatment on (R,R′)-Fen signaling", "setting": "[2]", "result": "blocked (R,R′)-Fen signaling in 1321N1 cells"},
      {"measurement": "effect of preincubation on antiproliferative effect of MNF", "setting": "[5]", "result": "did not block the antiproliferative effect of MNF"},
      {"measurement": "effect of pretreatment on (R,R′)-Fen-stimulated mitogenesis", "setting": "[6]; HepG2 cells", "result": "significantly blocked (R,R′)-Fen-stimulated mitogenesis"},
      {"measurement": "effect of pretreatment on anti-proliferative effect of (R,R′)-MNF", "setting": "[6]; HepG2 cells", "result": "refractory to ICI 118,551 pretreatment"},
      {"measurement": "effect on cell proliferation", "setting": "[6]; HepG2 cells", "result": "showed no effect on cell proliferation"}
    ]},
    {"smiles": "Cc1c(C(=O)NN2CCCCC2)nn(-c2ccc(Cl)cc2Cl)c1-c1ccc(-c2ccc(CCCNC(=O)c3ccc4c(c3)C(=O)OC43c4ccc(N(C)C)cc4Oc4cc(N(C)C)ccc43)cc2)cc1", "note": "[T1117]", "values": [
      {"measurement": "time of half-maximum incorporation of T1117", "setting": "[7]; HepG2 cells transfected with control siRNA", "result": "~15", "unit": "min"},
      {"measurement": "EC50", "setting": "[7]; serum-depleted cells, 37° C., 2.5-100 nM, read-out: T1117 concentration of half-maximal cellular incorporation", "result": "~8", "unit": "nM"}
    ]},
    {"smiles": "CN(C)c1ccc2c(-c3ccc(C(=O)NCCCc4ccccc4)cc3C(=O)[O-])c3ccc(N(C)C)cc3[o+]c2c1", "note": "[TAMRA-PPA, 5′-TAMRA-3-phenylpropan-1-amine]", "values": [
      {"measurement": "cellular incorporation of fluorescence", "setting": "[7]; HepG2 cells, up to 1 hour", "result": "no significant incorporation of fluorescence"}
    ]},
    {"smiles": "Cc1c(C(=O)c2cccc3ccccc23)c2cccc3c2n1[C@H](CN1CCOCC1)CO3", "note": "[WIN 55,212-2, reference compound]", "values": [
      {"measurement": "effect of pretreatment on T1117 incorporation", "setting": "[7]", "result": "markedly increased the rate of T1117 accumulation"},
      {"measurement": "effect of pretreatment on (R,R′)-Fen-stimulated mitogenesis", "setting": "[6]; HepG2 cells", "result": "canceled out the growth-promoting action of fenoterol"},
      {"measurement": "effect on cell proliferation", "setting": "[6]; HepG2 cells", "result": "reduced cell proliferation"}
    ]}
  ]
}
